{"source": "patent US11471462B2", "about": "“Compositions and methods for detecting and treating diabetes” (THE BROAD INSTITUTE, INC., priority 2016, dated 2022)"}
{"system": "SLC16A11", "assay": "CRISPR (SAM) transactivation assay, SLC16A11 expression in 293T cells", "format": "cell-based, human", "conditions": "Cas9-based transactivators (SAM) targeted near variant", "text": "These experiments are based upon Cas9 based transactivators (SAM or synergistic activation mediators) as described in Konermann et al (Nature 517: 583-588, 2015). Similar experiments based on other types of transactivators that are more finely tuned to distal activation such as those described in Hilton et al. (Nature 33:510-518, 2015) could also be envisioned. Cas9 was used to target transactivators to sites near individual variants in the credible set. Their ability to activate SLC16A11 gene expression was assessed (Table 10).\nCell lines derived from HEK293-T cells were established by lentivirus infection resulting in stable integration of two components of the SAM system namely dCas9-VP64 and MS2-p65-HSF1. The resulting stable cell lines were then plated into 96 well plates and left overnight. The next day, cells were transfected with the guide RNAs (pHKO23), the final component of the SAM system. After an additional 48 hours, cells were harvested for gene expression analyses."}
{"molecule": "rs4630597 (guide 1 GGTGCCTCAGATACCTGGTT; guide 2 AACCAGGTATCTGAGGCACC; listed as DNA, chemistry not given here; listed as Homo sapiens)", "Increases SLC16A11 transcript levels in transactivator assay": "FALSE"}
{"molecule": "GGCTGCGTGTTAGTGGCTTC (chemistry not given here)", "Increases SLC16A11 transcript levels in transactivator assay": "TRUE"}
{"molecule": "rs2292351 (guide 1 AGCCTCTGGCTGCTCGCCCG; guide 2 CACCCCGGGCGAGCAGCCAG; listed as DNA, chemistry not given here; listed as Homo sapiens)", "Increases SLC16A11 transcript levels in transactivator assay": "TRUE"}
{"molecule": "TGTTCTCAGGAACGTTGCCG (chemistry not given here)", "Increases SLC16A11 transcript levels in transactivator assay": "TRUE"}
{"molecule": "rs1698227 (guide 1 TGGTGCTAAGGGGCACACAC; guide 2 TGCTCATTTTCCTCTGCACT; listed as DNA, chemistry not given here; listed as Homo sapiens)", "Increases SLC16A11 transcript levels in transactivator assay": "FALSE"}
{"molecule": "rs17203148 (guide 1 TCTGCCAATCTTGGCTCTGT; guide 2 GAAACCTACAGAGCCAAGAT; listed as DNA, chemistry not given here; listed as Homo sapiens)", "Increases SLC16A11 transcript levels in transactivator assay": "FALSE"}
{"molecule": "rs186568031 (guide 1 GATTTTCACTCTTGTTGCCC; guide 2 TTCACTCTTGTTGCCCAGGC; listed as DNA, chemistry not given here; listed as Homo sapiens)", "Increases SLC16A11 transcript levels in transactivator assay": "FALSE"}
{"molecule": "GCGGGATTTAGGCATTGTTG (chemistry not given here)", "Increases SLC16A11 transcript levels in transactivator assay": "TRUE"}
{"molecule": "TGGCTCTGGGTGCTGAAACG (chemistry not given here)", "Increases SLC16A11 transcript levels in transactivator assay": "TRUE"}
{"molecule": "rs73239895 (guide 1 ACTCCTGCCGGAGGTTCTCG; guide 2 AGGCCCCGAGAACCTCCGGC; listed as DNA, chemistry not given here; listed as Homo sapiens)", "Increases SLC16A11 transcript levels in transactivator assay": "FALSE"}
{"molecule": "CTATTTCCACGCGTTGGCGG (chemistry not given here)", "Increases SLC16A11 transcript levels in transactivator assay": "TRUE"}
{"molecule": "rs75075014 (guide 1 GGAAGTGGAGGAGAGTGTCC; guide 2 GGAGTCATGCCTGGAAGTGG; listed as DNA, chemistry not given here; listed as Homo sapiens)", "Increases SLC16A11 transcript levels in transactivator assay": "FALSE"}
{"molecule": "rs191133 (guide 1 TGAAAGTAAGTCAATCATGG; guide 2 ATGATTGACTTACTTTCATC; listed as DNA, chemistry not given here; listed as Homo sapiens)", "Increases SLC16A11 transcript levels in transactivator assay": "FALSE"}
{"system": "SLC16A11", "assay": "Compound treatment, SLC16A11 expression by ddPCR in SNU761 cells", "format": "cell-based, human", "conditions": "not given", "procedure": "(§1) A small number of the compounds that made the strongest positive connections to the SLC16A11 gene expression signature were selected and tested. […] Methotrexate was also included, which had been annotated as a dihydrofolate reductase inhibitor. SNU761 cells (derived from a human hepatocellular carcinoma) and NCIH716 cells (derived from a human cecum adenocarcinoma), which both express SLC16A11, were treated with the compounds. The same compound concentrations and treatment times were used as in the LINCS dataset experiments. […] For normalization, a different housekeeper gene, HPRT1, was used and obtained similar results with the mTOR inhibitors (FIGS. 14A and 14B).\n(§2) From the total list of compounds, 59 readily available compounds were selected from the 79 compounds with the largest connectivity scores to the query signature and 20 middle compounds with connectivity scores centered on 0 (FIG. 15A) and then treated SNU761 cells at the same doses and treatment times as were used in the LINCS dataset. It was expected that the top compounds would be enriched for compounds that increased SLC16A11 expression. […] The results were aligned with the expectations (FIG. 15B). Hierarchical clustering of the SLC16 expression profiles generated by the compound treatments are shown by the heat map in FIG. 15C.\n(§3) SNU761 (human hepatocellular carcinoma) and NCIH716 (human cecum adenocarcinoma) were cultured in RPMI Medium 1640 supplemented with 10% Fetal Bovine Serum (FBS), 100 μg/ml Streptomycin and 100 U/ml Penicillin. Cells were grown in a humidified CO2 incubator, at 37° C.\n(§4) For the unbiased approach taken to investigate the compounds that connected to the SLC16A11 gene expression signature, compounds were obtained from compound management at the Broad Institute.\n(§5) SNU761 and NCIH716 cells were plated into 96 well plates at a density of 20,000 cells per well. Hepatocytes were plated into collagen coated 96 well plates (Corning, 354408) at a density of 50,000 cells per well. After 24 hours, cells were treated with compounds at a final concentration of 10 μM or vehicle control for the appropriate amount of time.\n(§6) At the time of collection, cells in 96 well plates were lysed by directly adding 50 μL of RLT buffer (Qiagen). 75 μL of AMPure XP beads, diluted by a factor of 5 in polyethylene glycol, were then added to bind nucleic acids. One wash with polyethylene glycol was then performed. DNase treatment (Qiagen) was carried out according to the manufacturer's protocol in a final volume of 50 μL. 100 μL of polyethylene glycol was added after the DNase treatment to crowd nucleic acids back onto the beads. Two washes with 80% ethanol were performed and residual ethanol was removed. RNA was then eluted in water.\n(§7) RNA was DNase treated and converted into cDNA using the High-Capacity RNA-to-cDNA kit (Thermo Fisher Scientific). The following FAM-labeled TaqMan Real-Time PCR assays (Thermo Fisher Scientific) were used to quantify gene expression: SLC16A11 (Hs00601062_g1), SLC16A13 (Hs00416832_m1), SLC16A1 (Hs01560299_m1). The VIC-labeled TaqMan Real-Time assays TBP (Hs00427620_m1) or HPRT1 (Hs02800695_m1) were used for normalization. Droplets were generated and analyzed using a QX200 Droplet Generator and Reader system (BioRad). Data was extracted using QuantaSoft (BioRad) and analyzed using Microsoft Excel."}
{"molecule": "N#CC(=C(/N)Sc1ccccc1N)/C(C#N)=C(\\N)Sc1ccccc1N", "note": "[U0126]", "avg_fc (SLC16A11 expression, compound treated vs DMSO treated cells)": 1.885}
{"system": "SLC16A11", "assay": "Compound treatment, SLC16A11 expression by ddPCR in SNU761 cells", "format": "cell-based, human", "conditions": "SNU761 cells; same doses and treatment times as in the LINCS dataset", "procedure": "as §1, §2, §3, §4, §5, §6, §7"}
{"molecule": "CC(C)COCC(CN(Cc1ccccc1)c1ccccc1)N1CCCC1", "note": "(stereo not drawn) [bepridil]", "avg_fc (SLC16A11 expression, compound treated vs DMSO treated cells)": 0.8545}
{"molecule": "Cn1cnc2c(F)c(Nc3ccc(Br)cc3Cl)c(C(=O)NOCCO)cc21", "note": "[selumetinib]", "avg_fc (SLC16A11 expression, compound treated vs DMSO treated cells)": 1.964}
{"molecule": "CO[C@H]1C[C@@H]2CC[C@@H](C)[C@@](O)(O2)C(=O)C(=O)N2CCCC[C@H]2C(=O)O[C@H]([C@H](C)C[C@@H]2CC[C@@H](OC(=O)C(C)(CO)CO)[C@H](OC)C2)CC(=O)[C@H](C)/C=C(\\C)[C@@H](O)[C@@H](OC)C(=O)[C@H](C)C[C@H](C)/C=C/C=C/C=C/1C", "note": "[temsirolimus]", "avg_fc (SLC16A11 expression, compound treated vs DMSO treated cells)": 1.372}
{"molecule": "CN1CCN(C2=Nc3cc(Cl)ccc3Nc3ccccc32)CC1", "note": "[clozapine]", "avg_fc (SLC16A11 expression, compound treated vs DMSO treated cells)": 0.9466}
{"molecule": "N#CC(=C(N)Sc1ccc(N)cc1)c1ccccc1C(F)(F)F", "note": "[MEK1-2-inhibitor]", "avg_fc (SLC16A11 expression, compound treated vs DMSO treated cells)": 1.414}
{"molecule": "Nc1ccn([C@H]2CC[C@@H](CO)O2)c(=O)n1", "note": "[zalcitabine]", "avg_fc (SLC16A11 expression, compound treated vs DMSO treated cells)": 1.01}
{"molecule": "CS(=O)(=O)N1CCN(Cc2cc3nc(-c4cccc5[nH]ncc45)nc(N4CCOCC4)c3s2)CC1", "note": "[GDC-0941]", "avg_fc (SLC16A11 expression, compound treated vs DMSO treated cells)": 2.079}
{"molecule": "CCCS(=O)(=O)Nc1ccc(F)c(C(=O)c2c[nH]c3ncc(-c4ccc(Cl)cc4)cc23)c1F", "note": "[vemurafenib]", "avg_fc (SLC16A11 expression, compound treated vs DMSO treated cells)": 1.368}
{"molecule": "O=c1cc(N2CCOCC2)oc2c1ccc1ccccc12", "note": "[NU-7026]", "avg_fc (SLC16A11 expression, compound treated vs DMSO treated cells)": 1.12}
{"molecule": "CCCC[C@@H](C=O)NC(=O)[C@H](CC(C)C)NC(=O)OCc1ccccc1", "note": "[calpeptin]", "avg_fc (SLC16A11 expression, compound treated vs DMSO treated cells)": 1.034}
{"molecule": "C[C@H](NC(=O)Cc1cc(F)cc(F)c1)C(=O)N[C@H](C(=O)OC(C)(C)C)c1ccccc1", "note": "[DAPT-GSI-IX]", "avg_fc (SLC16A11 expression, compound treated vs DMSO treated cells)": 1.286}
{"molecule": "COC(=O)c1c(-c2cc(OC)c(OC)c(OC)c2)c2ccnc(OCc3ncccn3)c2c(=O)n1Cc1ccnc(C)c1", "note": "[T-0156]", "avg_fc (SLC16A11 expression, compound treated vs DMSO treated cells)": 0.8378}
{"molecule": "OC1CCC(Nc2ncc3nc(Nc4c(F)cc(F)cc4F)n([C@@H]4CCOC4)c3n2)CC1", "note": "(stereo partly drawn) [CG-930]", "avg_fc (SLC16A11 expression, compound treated vs DMSO treated cells)": 1.337}
{"molecule": "O=C1N(c2ccccc2)c2ccccc2C1(Cc1ccncc1)Cc1ccncc1", "note": "[linopirdine]", "avg_fc (SLC16A11 expression, compound treated vs DMSO treated cells)": 0.8629}
{"molecule": "CCC(=O)N1CCN(c2ccc(-n3c(=O)ccc4cnc5ccc(-c6cnc7ccccc7c6)cc5c43)cc2C(F)(F)F)CC1", "note": "[torin-1]", "avg_fc (SLC16A11 expression, compound treated vs DMSO treated cells)": 2.84}
{"molecule": "Nc1nc(Cl)nc2c1ncn2[C@H]1C[C@H](O)[C@@H](CO)O1", "note": "[cladribine]", "avg_fc (SLC16A11 expression, compound treated vs DMSO treated cells)": 0.5994}
{"molecule": "Cc1cc([C@@H](C)Nc2ccccc2C(=O)O)c2nc(N3CCOCC3)cc(=O)n2c1", "note": "[AZD-6482]", "avg_fc (SLC16A11 expression, compound treated vs DMSO treated cells)": 2.176}
{"molecule": "OCCOCCN1CCN(C2=Nc3ccccc3Sc3ccccc32)CC1", "note": "[quetiapine]", "avg_fc (SLC16A11 expression, compound treated vs DMSO treated cells)": 1.019}
{"molecule": "COc1cccc2cc(-c3nc([C@H]4CC[C@H](C(=O)O)CC4)n4ncnc(N)c34)[nH]c12", "note": "[OSI-027, trans-4-[4-amino-5-(7 methoxy-1H-indol-2-yl)imidazo[5,1-f][1,2,4]triazin-7-yl]-cyclohexanecarboxylic acid, reference compound]", "avg_fc (SLC16A11 expression, compound treated vs DMSO treated cells)": 3.384}
{"molecule": "Cc1cn(-c2cc(C(=O)Nc3ccc(C)c(NC(=O)c4ccno4)c3)cc(C(F)(F)F)c2)cn1", "note": "[ALW-II-38-3]", "avg_fc (SLC16A11 expression, compound treated vs DMSO treated cells)": 0.9734}
{"molecule": "O=C1NC(=O)/C(=C/c2ccc3c(c2)OC(F)(F)O3)S1", "note": "[AS-604850]", "avg_fc (SLC16A11 expression, compound treated vs DMSO treated cells)": 1.009}
{"molecule": "CNC(=O)Nc1ccc(-c2nc(N3CC4CCC(C3)O4)c3cnn(C4CCC5(CC4)OCCO5)c3n2)cc1", "note": "[WYE-125132]", "avg_fc (SLC16A11 expression, compound treated vs DMSO treated cells)": 3.336}
{"molecule": "Nc1ccc(-c2cccc3c(=O)cc(N4CCOCC4)oc23)cc1", "note": "[PI-828]", "avg_fc (SLC16A11 expression, compound treated vs DMSO treated cells)": 1.336}
{"molecule": "Cc1onc(-c2ccccc2)c1-c1ccc(S(N)(=O)=O)cc1", "note": "[valdecoxib]", "avg_fc (SLC16A11 expression, compound treated vs DMSO treated cells)": 1.069}
{"molecule": "Oc1cccc(-c2nc(N3CCOCC3)c3oc4ncccc4c3n2)c1", "note": "[PI-103, 3-(6-morpholin-4-yl-8-oxa-3,5,10-triazatricyclo[7.4.0.0^2,7]trideca-1 (9),2(7),3,5,10,12-hexaen-4-yl)phenol, reference compound]", "avg_fc (SLC16A11 expression, compound treated vs DMSO treated cells)": 2.453}
